The record followed here is US8420670B2 (Abbott Laboratories, priority 2007, dated 2013).

One assay concerns the target T1, Human GlyT1c (Homo sapiens, UniProt P48067).
T1 construct: expressed in transfected cells; host or cells: CHO (hGlyT1c_5_CHO clone)
T1 sequence (P48067 1-706): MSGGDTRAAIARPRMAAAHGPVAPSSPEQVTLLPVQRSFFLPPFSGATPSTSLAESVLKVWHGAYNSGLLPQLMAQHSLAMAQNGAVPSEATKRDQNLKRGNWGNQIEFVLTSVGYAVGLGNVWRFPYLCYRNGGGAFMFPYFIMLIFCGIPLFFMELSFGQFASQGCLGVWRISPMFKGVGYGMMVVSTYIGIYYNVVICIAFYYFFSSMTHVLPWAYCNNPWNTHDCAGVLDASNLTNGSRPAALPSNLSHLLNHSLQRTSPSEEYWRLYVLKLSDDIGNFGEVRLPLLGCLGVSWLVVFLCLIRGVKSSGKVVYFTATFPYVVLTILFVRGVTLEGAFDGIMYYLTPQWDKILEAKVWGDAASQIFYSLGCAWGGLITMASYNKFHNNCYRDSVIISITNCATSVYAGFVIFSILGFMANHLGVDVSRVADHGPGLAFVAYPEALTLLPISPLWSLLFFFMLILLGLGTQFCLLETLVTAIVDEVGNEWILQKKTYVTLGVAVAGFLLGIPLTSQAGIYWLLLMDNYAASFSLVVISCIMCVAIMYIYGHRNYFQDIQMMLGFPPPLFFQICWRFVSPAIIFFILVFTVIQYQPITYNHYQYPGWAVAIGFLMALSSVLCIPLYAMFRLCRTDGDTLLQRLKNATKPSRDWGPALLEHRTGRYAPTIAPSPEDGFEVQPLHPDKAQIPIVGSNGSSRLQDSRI
Put plainly: Glycine uptake in recombinant hGlyT1 expressing cells. It counts as cell-based. The settings on record: hGlyT1c_5_CHO cells; [3H]-glycine uptake, 60-120 min. The essentials:
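Recombinant hGlyT1c CHO cells were washed in HBSS with 5 mM L-alanine, then given inhibitor and [3H]-glycine. Uptake was counted continuously by solid-phase scintillation for up to 3 h, with nonspecific uptake defined by 10 μM Org24598. IC50 came from four-parameter logistic fits over the linear 60–120 min range.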

The target in the next assay is T2, human GlyT1c transporter (Homo sapiens, UniProt P48067).
T2 construct: expressed in transfected cells; host or cells: recombinant hGlyT1-expressing cells
T2 sequence (P48067 1-706): T1 sequence (P48067 1-706)
Put plainly: [3H]-(R)-NPTS radioligand binding assay using recombinant hGlyT1 expressing cell membranes. The settings on record: 0.5 nM [3H]-(R)-NPTS, apparent Ki via Cheng-Prusoff, read-out: [3H]-(R)-NPTS bindung Ki. The essentials: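 Membranes expressing human GlyT1c (50 μg/ml protein) were incubated with 0.5 nM [3H]-(R)-NPTS in pH 7.5 HEPES/NaCl buffer with 1% DMSO for 1 h at room temperature, then filtered. Non-specific binding was defined with 10 μM Org24598, and IC50 values were converted to apparent Ki by Cheng-Prusoff.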

Structures are written as SMILES.

The term IC50 denotes the concentration at which inhibition is half-maximal.

Take `COc1cccc2c(NC(c3ccncc3)c3ccc(Cl)cc3)cc(C)nc12` (stereo not drawn) [Example 73, [(4-Chlorophenyl)-pyridin-4-ylmethyl]-(8-methoxy-2-methylquinolin-4-yl)-amine]: the IC50 on Human GlyT1c was no more than 1 µM. The Ki on human GlyT1c transporter was no more than 1 µM.
In the case of `COc1cccc2c(NC(C(N)=O)c3ccccc3)cc(C)nc12` (stereo not drawn) [Example 74, 2-(8-Methoxy-2-methylquinolin-4-ylamino)-2-phenylacetamide], at Human GlyT1c, the half-maximal inhibitory concentration (IC50) is no more than 1000 µM. Also, the Ki on human GlyT1c transporter was no more than 10 µM.
For `COc1cccc2c(NC(CN)c3ccccc3)cc(C)nc12` (stereo not drawn) [Example 75, N*1*-(8-Methoxy-2-methylquinolin-4-yl)-1-phenylethane-1,2-diamine] the same measures were no more than 1 µM and no more than 1 µM.
For `COc1cccc2c(N[C@H](CN(C)C)c3ccc(Cl)cc3)cc(C)nc12` [Example 76, (S)-1-(4-Chlorophenyl)-N*1*-(8-methoxy-2-methylquinolin-4-yl)-N*2*,N*2*-dimethylethane-1,2-diamine] the same measures were no more than 0.1 µM and no more than 0.001 µM.
As to `COc1cccc2c(N[C@@H](CN(C)C)c3ccc(Cl)cc3)cc(C)nc12` [Example 77, (R)-1-(4-Chlorphenyl)-N*1*-(8-methoxy-2-methylquinoline-4-yl)-N*2*,N*2*-dimethylethane-1,2-diamin], the 50% inhibitory concentration (IC50) on Human GlyT1c was no more than 10 µM. The Ki on human GlyT1c transporter is no more than 1 µM.
For `COc1cccc2c(NC(CNCc3ccccc3)c3ccccc3)cc(C)nc12` (stereo not drawn) [Example 78, N*2*-Benzyl-N*1*-(8-methoxy-2-methylquinolin-4-yl)-1-phenylethane-1,2-diamine] the same measures were no more than 10 µM and no more than 1 µM.
For `COc1cccc2c(NC(CNC(C)C)c3ccccc3)cc(C)nc12` (stereo not drawn) [Example 79, N*2*-Isopropyl-N*1*-(8-methoxy-2-methylquinolin-4-yl)-1-phenylethane-1,2-diamine] the same measures were no more than 10 µM and no more than 10 µM.
For `COc1cccc2c(NCc3ccc(C(F)(F)F)c(Cl)c3)cc(C)nc12` [Example 80, (3-Chloro-4-trifluoromethylbenzyl)-(8-methoxy-2-methylquinolin-4-yl)-amine], the IC50 at Human GlyT1c was no more than 1 µM. Moreover, the Ki on human GlyT1c transporter is no more than 1 µM.
Turning to `Cc1cc(NCc2ccc(Cl)c(Cl)c2)c2cccc(Cl)c2n1` [Example 81, (8-Chlor-2-methylquinolin-4-yl)-(3,4-dichlorobenzyl)-amine], the half-maximal inhibitory concentration (IC50) at Human GlyT1c was no more than 1 µM. The Ki on human GlyT1c transporter was no more than 0.1 µM.
`Cc1cc(NCc2ccc(Cl)c(Cl)c2)c2cccc(F)c2n1` [Example 82, (3,4-Dichlorobenzyl)-(8-fluoro-2-methylquinolin-4-yl)-amine]: the IC50 at Human GlyT1c was no more than 1 µM. At human GlyT1c transporter, the Ki was no more than 1 µM.
For `CSc1cccc2c(NCc3ccc(Cl)cc3)cc(C)nc12` [Example 83, (4-Chlorobenzyl)-(2-methyl-8-methylsulfanylquinolin-4-yl)-amine], the concentration for half-maximal inhibition (IC50) on Human GlyT1c was no more than 1 µM. For the same compound, the Ki at human GlyT1c transporter is no more than 1 µM.
Turning to `COc1cccc2c(NCc3ccc(Cl)cc3)cc(C)nc12` [Example 84, (4-Chlorobenzyl)-(2-methyl-8-methoxyquinolin-4-yl)amine], the half-inhibitory concentration (IC50) on Human GlyT1c was no more than 1 µM. Moreover, the Ki at human GlyT1c transporter is no more than 1 µM.
For `Cc1cc(NCc2ccc(F)c(F)c2)c2cccc(C)c2n1` [Example 85, (3,4-Difluoro-benzyl)-(2,8-dimethyl-quinolin-4-yl)-amine], the IC50 at Human GlyT1c was no more than 1 µM. In addition, on human GlyT1c transporter, the Ki is no more than 1 µM.
Regarding `CSc1cccc2c(NCc3ccc(F)c(F)c3)cc(C)nc12` [Example 86, (3,4-Difluorobenzyl)-(2-methyl-8-methylsulfanylquinolin-4-yl)-amine], on Human GlyT1c, the IC50 was no more than 1 µM. Moreover, the Ki on human GlyT1c transporter was no more than 1 µM.
Regarding `Cc1cc(NCc2ccc(Cl)c(Cl)c2)c2cccc(C)c2n1` [Example 87, (3,4-Dichlorobenzyl)-(2-methyl-8-methylquinolin-4-yl)-amine], the half-maximal inhibitory concentration (IC50) on Human GlyT1c is no more than 0.1 µM. Further, the Ki on human GlyT1c transporter was no more than 0.1 µM.
On to `CSc1cccc2c(NCc3ccc(Cl)c(Cl)c3)cc(C)nc12` [Example 88, (3,4-Dichlorobenzyl)-(2-methyl-8-methylsulfanylquinolin-4-yl)-amine], for which the IC50 at Human GlyT1c was no more than 0.1 µM. Further, at human GlyT1c transporter, the Ki is no more than 0.1 µM.
In the case of `Cc1cc(NCc2ccc(Cl)c(Cl)c2)c2ccccc2n1` [Example 89, (3,4-Dichlorobenzyl)-(2-methylquinolin-4-yl)-amine], the IC50 on Human GlyT1c was no more than 1 µM. Also, the Ki on human GlyT1c transporter is no more than 0.1 µM.
For `Cc1cc(NCc2ccc(F)cc2)c2ccccc2n1` [Example 90, (4-Fluorobenzyl)-(2-methylquinoline-4-yl)-amine] the same measures were no more than 1 µM and no more than 1 µM.
The matching figures for `Cc1cc(NCc2cccc(Cl)c2Cl)c2ccccc2n1` [Example 91, (2,3-Dichloro-benzyl)-(2-methylquinolin-4-yl)-amine]: no more than 10 µM and no more than 10 µM.
For `Cc1cc(NCc2ccc(Cl)c(Cl)c2)c2cccc([S+](C)[O-])c2n1` (stereo not drawn) [Example 92, (3,4-Dichlorobenzyl)-(8-methanesulfinyl-2-methylquinolin-4-yl)-amine] the same measures were no more than 1 µM and no more than 1 µM.
`Cc1cc(NCc2ccc(Cl)c(Cl)c2)c2cccc(S(C)(=O)=O)c2n1` [Example 93, (3,4-Dichlorobenzyl)-(8-methanesulfonyl-2-methylquinolin-4-yl)-amine]: on Human GlyT1c, the IC50 is no more than 10 µM. Further, on human GlyT1c transporter, the Ki is no more than 1 µM.
For `CN(C)c1cc(NCc2ccccc2)c2ccccc2n1` [Example 94, N*4*-Benzyl-N*2*,N*2*-dimethylquinoline-2,4-diamine] the same measures were no more than 100 µM and no more than 10 µM.
With `CN(C)c1cc(NCc2ccc(Cl)c(Cl)c2)c2ccccc2n1` [Example 95, N*4*-(3,4-Dichlorobenzyl)-N*2*,N*2*-dimethylquinoline-2,4-diamine], the concentration for half-maximal inhibition (IC50) on Human GlyT1c is no more than 0.1 µM. In addition, on human GlyT1c transporter, the Ki is no more than 0.1 µM.
For the compound `CN(C)c1cc(NCc2ccc(Cl)cc2Cl)c2ccccc2n1` [Example 96, N*4*-(2,4-Dichlorobenzyl)-N*2*,N*2*-dimethylquinoline-2,4-diamin], the concentration for half-maximal inhibition (IC50) at Human GlyT1c is no more than 10 µM. In addition, the Ki at human GlyT1c transporter is no more than 1 µM.
